Results published in patent US20260207654A1, “HEPARAN SULFATE AND ITS MIMETICS AS CHEMOKINE INHIBITORS” (INDIAN INSTITUTE OF SCIENCE EDUCATION AND RESEARCH, priority 2021, published 2026).

Key:
Test in all cases: Chemokine glycan microarray binding assay
Conditions in all cases: maximum RFU set as 100% binding, average across 2 glycan concentrations and 3 chemokine dilutions (n=6)
CCL13 = CCL13 (Homo sapiens, UniProt Q99616)
Experimental: (§1) Microarray Studies: The compounds of the present invention were covalently immobilized on epoxy group collated glass slides. Slides were rehydrated with dH2O and incubated for 30 min in a staining dish with 50° C. prewarmed ethanolamine (0.05 M) in Tris-HCl (0.1 M, pH 9.0) to block the remaining reactive epoxy groups on the slide surface, then washed with 50° C. prewarmed dH2O. Slides were centrifuged at 200 g for 3 min, then fitted with the ProPlate Multi-Array 16-well slide module (Grace Bio-lab P37001) to divide into the subarrays (blocks). Slides were washed with PBST (0.1% Tween 20), aspirated, and blocked with 200 μL/subarray of blocking buffer (PBS pH 7.3+1% w/v ovalbumin) for 1 h at RT with gentle shaking. Next, the blocking solution was aspirated and 100 μL/block of primary chemokines diluted in PBS pH 7.3+1% w/v ovalbumin were incubated with gentle shaking for 2 hours at RT. Slides were washed 4 times with PBST, then with PBS (without Tween-20) for 2 min. Bound antibodies were detected by incubating with biotinylated secondary detections (1 ng/μL) diluted in PBS, 200 μL/block at RT for 1 h. Slides were washed 4 times with PBST, then with PBS (without Tween-20) for 2 min and biotinylated antibodies were detected with Cy3-SA ([…]). Slides were washed 4 times with PBST, then with PBS for 10 min followed by removal from the ProPlate Multi-Array slide module and immediately dipping in a staining dish with dH2O for 10 min with shaking. The slides were then centrifuged at 200 g for 3 min, and the dry slides immediately scanned. Binding was tested at three serial dilutions, then detected with the relevant biotinylated secondary antibody (1 μg/mL) followed by Cy3-strepavidin (1.5 μg/mL). Arrays were scanned and RFUs were calculated of chemokines binding to 100 μM glycans printed at four replicates. Rank binding of chemokines (each at three dilutions) to glycans printed at four replicates each was calculated and summarized in Table 1. For each binding assay per printed block, the maximum RFU was determined and set as 100% binding. Then, binding to all other glycans in the same block was ranked in comparison to the maximal binding, and average rank binding (and SEM) for each glycan across the three examined concentrations of each chemokine was calculated. This analysis allowed to compare the glycan-binding profiles of the different chemokines and dissect their binding preferences.
(§2) Table 1. Chemokine glycan microarray binding assay. Binding was tested at 3 serial dilutions, then detected with the relevant biotinylated secondary antibody (1 μg/ml) followed by Cy3-Strepavidin (1.5 μg/ml) (Table SX). Arrays were scanned, relative fluorescent units (RFU) obtained, and maximum RFU determined and set as 100% binding. Then rank binding (per printed glycan per concentration, per each chemokine dilution, per printed block) was determined. Since each glycans was printed at 2 concentration, 100% binding was set separately for each concentration. Then, binding to all the other glycans at the same concentration was ranked in comparison to the maximal binding, and the average rank binding and SEM for each glycan across the two glycan concentrations and three examined dilutions of each chemokine was calculated (n=6, 2 glycan concentrations across 3 chemokine dilutions). This analysis allowed to compare the glycan binding profiles of the different chemokines and dissect their binding preferences. The mean rank is shown as a heatmap of all the examined binding assays together (red highest, blue lowest and white 50th percentile of ranking).

CCL2 = CCL2 (Homo sapiens, UniProt P13500)
Experimental: as §1, §2

CCL21 = target: T1, CCL21 (Homo sapiens, UniProt O00585)
T1 sequence (O00585 24-134): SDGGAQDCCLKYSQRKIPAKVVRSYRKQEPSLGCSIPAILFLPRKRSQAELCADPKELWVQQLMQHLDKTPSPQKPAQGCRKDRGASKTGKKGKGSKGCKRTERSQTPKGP
Experimental: as §1, §2

CCL28 = target: T2, CCL28 (Homo sapiens, UniProt Q9NRJ3)
T2 sequence (Q9NRJ3 20-127): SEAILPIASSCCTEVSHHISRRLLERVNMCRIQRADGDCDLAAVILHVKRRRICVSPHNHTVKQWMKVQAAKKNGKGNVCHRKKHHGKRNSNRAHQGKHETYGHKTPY
Experimental: as §1, §2

CCL5 = target: T3, CCL5 (Homo sapiens, UniProt P13501)
T3 sequence (P13501 24-91): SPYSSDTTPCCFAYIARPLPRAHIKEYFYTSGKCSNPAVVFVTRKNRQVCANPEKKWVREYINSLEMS
Experimental: as §1, §2

CCL7 = CCL7 (Homo sapiens, UniProt P80098)
Experimental: as §1, §2

CXCL10 = target: T4, CXCL10 (Homo sapiens, UniProt P02778)
T4 sequence (P02778 22-98): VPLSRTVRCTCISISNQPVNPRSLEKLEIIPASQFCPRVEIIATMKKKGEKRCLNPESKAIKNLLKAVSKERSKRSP
Experimental: as §1, §2

CXCL12 = CXCL12 (Homo sapiens, UniProt P48061)
Experimental: as §1, §2

CXCL8 = target: T5, CXCL8 (Homo sapiens, UniProt P10145)
T5 sequence (P10145 21-99): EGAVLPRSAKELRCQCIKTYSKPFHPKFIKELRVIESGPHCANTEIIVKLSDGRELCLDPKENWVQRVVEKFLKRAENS
Experimental: as §1, §2

Sequence of CCL13 (Q99616 17-98, species assumed): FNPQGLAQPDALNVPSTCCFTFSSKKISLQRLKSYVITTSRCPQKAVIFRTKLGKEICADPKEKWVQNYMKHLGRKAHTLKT
Sequence of CCL7 (P80098 24-99, species assumed): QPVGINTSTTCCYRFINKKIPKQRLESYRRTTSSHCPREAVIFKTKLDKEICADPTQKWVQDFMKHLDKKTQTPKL
Sequence of CXCL12 (P48061 22-93, species assumed): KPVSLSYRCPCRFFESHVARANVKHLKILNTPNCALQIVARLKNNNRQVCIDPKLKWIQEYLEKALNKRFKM
Sequence of CCL2 (P13500 24-99, species assumed): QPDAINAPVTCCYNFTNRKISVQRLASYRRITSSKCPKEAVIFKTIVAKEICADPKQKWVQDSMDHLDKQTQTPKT

| Compound | mean rank binding to CCL13 (CCL13) | mean rank binding to CCL2 (CCL2) | mean rank binding to CCL21 (CCL21) | mean rank binding to CCL28 (CCL28) | mean rank binding to CCL5 (CCL5) | mean rank binding to CCL7 (CCL7) | mean rank binding to CXCL10 (CXCL10) | mean rank binding to CXCL12 (CXCL12) | mean rank binding to CXCL8 (CXCL8) |
| --- | --- | --- | --- | --- | --- | --- | --- | --- | --- |
| NCCOCCO[C@@H]1O[C@@H](C(=O)O)[C@@H](OS(=O)(=O)O)[C@H](O)[C@H]1O [Example 2, Ethoxy-2-aminoethoxyl-O-(4-O-sulfonato)-α-L-idopyranoside Uronic Acid] | 82% | 2% | 63% | 58% | 2% | 30% | 45% | 66% | 12% |
| NCCOCCO[C@@H]1O[C@@H](C(=O)O)[C@@H](OS(=O)(=O)O)[C@H](O)[C@H]1OS(=O)(=O)O [Example 3, Ethoxy-2-aminoethoxyl-O-(2,4-O-disulfonato)-α-L-idopyranoside Uronic Acid] | 69% | 0% | 46% | 72% | 1% | 17% | 24% | 38% | 5% |
| NCCOCCO[C@@H]1O[C@@H](C(=O)O)[C@@H](O[C@@H]2O[C@@H](C(=O)O)[C@@H](OS(=O)(=O)O)[C@H](O)[C@H]2O)[C@H](O)[C@H]1O [Example 5, Ethoxy-2-aminoethoxyl-O-((4-O-sulfonato)-α-L-idopyranosyl Uronic Acid-α(1→4))-α-L-idopyranoside Uronic Acid] | 81% | 23% | 62% | 80% | 15% | 58% | 57% | 64% | 62% |
| NCCOCCO[C@@H]1OC(C(=O)O)[C@@H](O[C@@H]2OC(C(=O)O)[C@@H](O[C@@H]3OC(C(=O)O)[C@@H](O)C(O)C3O)C(O)C2O)C(O)C1O (stereo partly drawn) [Example 7, Ethoxy-2-aminoethoxyl-O-(α-L-idopyranosyl Uronic Acid-α(1→4)-α-L-idopyranosyl Uronic Acid-α(1→4))-α-L-idopyranoside Uronic Acid] | 86% | 36% | 83% | 80% | 30% | 75% | 78% | 92% | 63% |
| NCCOCCO[C@@H]1O[C@@H](C(=O)O)[C@@H](O[C@@H]2O[C@@H](C(=O)O)[C@@H](O[C@@H]3O[C@@H](C(=O)O)[C@@H](OS(=O)(=O)O)[C@H](O)[C@H]3O)[C@H](O)[C@H]2O)[C@H](O)[C@H]1O [Example 8, Ethoxy-2-aminoethoxyl-O-((4-O-sulfonato)-α-L-idopyranosyl Uronic Acid-α(1→4)-L-idopyranosyl Uronic Acid-α(1→4))-α-L-idopyranoside Uronic Acid] | 72% | 0% | 60% | 54% | 10% | 12% | 23% | 45% | 13% |

Further lines, results first:

| mean rank binding to CCL13 (CCL13) | mean rank binding to CCL2 (CCL2) | mean rank binding to CCL21 (CCL21) | mean rank binding to CCL28 (CCL28) | mean rank binding to CCL5 (CCL5) | mean rank binding to CCL7 (CCL7) | mean rank binding to CXCL10 (CXCL10) | mean rank binding to CXCL12 (CXCL12) | mean rank binding to CXCL8 (CXCL8) | Compound |
| --- | --- | --- | --- | --- | --- | --- | --- | --- | --- |
| 70% | 13% | 69% | 43% | 31% | 56% | 52% | 69% | 37% | 3-Aminopropyl-O-[(2-amino-2-deoxy-α-D-glucopyranosyl)-(1→4)-O-(2-O-sulfonato-α-L-idopyranosyluronate)-(1→4)-O-(2-amino-2-deoxy-α-D-glucopyranosyl)]-(1→4)-O-2-O-sulfonato-α-L-idopyranosiduronate [Example 13] |
| 74% | 4% | 52% | 46% | 2% | 30% | 47% | 62% | 17% | NCCOCCO[C@@H]1OC(C(=O)O)[C@@H](O)C(O)C1O (stereo partly drawn) [Example 1, Ethaoxy-2-aminoethoxyl-O-α-L-idopyranoside Uronic Acid] |
| 67% | 2% | 48% | 56% | 2% | 33% | 44% | 56% | 12% | NCCOCCO[C@@H]1OC(C(=O)O)[C@@H](O[C@@H]2OC(C(=O)O)[C@@H](O)C(O)C2O)C(O)C1O (stereo partly drawn) [Example 4, Ethoxy-2-aminoethoxyl-O-(α-L-idopyranosyl Uronic Acid-α(1→4))-α-L-idopyranosyl Uronic Acid] |
| 94% | 25% | 71% | 84% | 38% | 55% | 67% | 79% | 73% | NCCOCCO[C@@H]1O[C@@H](C(=O)O)[C@@H](O[C@@H]2O[C@@H](C(=O)O)[C@@H](OS(=O)(=O)O)[C@H](O)[C@H]2OS(=O)(=O)O)[C@H](O)[C@H]1OS(=O)(=O)O [Example 6, Ethoxy-2-aminoethoxyl-O-((2,4-O-disulfonato)-α-L-idopyranosyl Uronic Acid-α(1→4)(2-sulfonato))-α-L-idopyroside Uronic Acid] |
| 53% | 66% | 79% | 51% | 75% | 94% | 82% | 75% | 71% | NCCOCCO[C@@H]1O[C@@H](C(=O)O)[C@@H](O[C@@H]2O[C@@H](C(=O)O)[C@@H](O[C@@H]3O[C@@H](C(=O)O)[C@@H](OS(=O)(=O)O)[C@H](O)[C@H]3OS(=O)(=O)O)[C@H](O)[C@H]2OS(=O)(=O)O)[C@H](O)[C@H]1OS(=O)(=O)O [Example 9, Ethoxy-2-aminoethoxyl-O-(2,4-O-disulfonato)-α-L-idopyranosyl Uronic Acid-α(1→4)(2-O-sulfonato)-α-L-idopyranosyl uronic acid-α(1→4)(2-O-sulfonato)-α-L-idopyranoside Uronic Acid] |
